This is an account of results in patent publication US20220323594A1, “LIPIDATED CATIONIC PEPTIDE-PEG COMPOSITIONS FOR NUCLEIC ACID DELIVERY” (NUTCRACKER THERAPEUTICS, INC., priority 2019, published 2022).

By viability is commonly meant a read-out of living cells in per cent, often relative to untreated cells.

Data set [1] is described as follows: MTT viability assay after treatment with Fluc mRNA/amino lipidated peptoid formulations. The note with it: human, HeLa cells. The data set is classed as cell-based. How it is done: Cellular viability was measured following treatment with Fluc mRNA/amino lipidated peptoid formulations by a traditional MTT viability assay. […] In this assay, cells were first treated with peptoid formulations at a final mRNA concentration of 100 ng/well for 8 hours. Cells were then left to grow for 48 hours, after which time they were exposed to 1.5 mg/mL 3-(4,5-dimethylthiazol-2-yl)-2,5-diphenyltetrazolium bromide (MTT) for 2 hours, then lysed using a solubilizing solution of 10% Triton-X 100 in acidic isopropanol (0.1N HCl). The signal corresponding to reduced formazan was normalized to untreated cells to provide a relative viability of each treated condition. […] In general, nearly all conditions maintained at least 80% viability with the only exceptions being formulations of compound 5, 34, and 35.

Data set [2] has as its system HeLa cells. Nature of the data set: In vitro expression of firefly luciferase (Fluc) after treatment with Fluc mRNA/amino lipidated peptoid formulations, no PEG or 2% DMG-PEG2000. The class given is cell-based. How it is done: The efficacy of mRNA/amino lipidated peptoid formulations was evaluated in vitro based on their ability to deliver the firefly luciferase (Fluc) reporter gene to cultured cells. Amino lipidated peptoids were combined with Fluc mRNA at a 5:1 w/w ratio, and the resulting particles were added to cultured HeLa cells at a dose of 100 ng/well (in 100 μL total volume). The resulting luciferase expression (RLU) was measured by a luminescence plate reader after 6 hours and 24 hours of treatment. […] In addition to evaluating nanoparticle complexes formed between mRNA cargos and amino lipidated peptoids alone, multicomponent formulations containing a small amount of PEG-lipid DMG-PEG2000 were also tested for in vitro Fluc mRNA delivery. In these formulations, DMG-PEG2000 was pre-mixed with candidate peptoid at an overall 2% incorporation (w/w), while maintaining the same 5:1 mass ratio of peptoid:mRNA used previously.

Data set [3] relates to HeLa cells. Put plainly: In vitro Fluc expression with variable peptoid:mRNA mass ratio, 2% DMG-PEG2000. The data set is classed as cell-based. The note with it: 24 h; for Observed Luciferase Expression (RLU) for Given Formulation Mass Ratio 2:1: 2% (w/w) DMG-PEG2000, peptoid:mRNA 2:1; for Observed Luciferase Expression (RLU) for Given Formulation Mass Ratio 3.5:1: 2% (w/w) DMG-PEG2000, peptoid:mRNA 3.5:1; for Observed Luciferase Expression (RLU) for Given Formulation Mass Ratio 5:1: 2% (w/w) DMG-PEG2000, peptoid:mRNA 5:1; for Observed Luciferase Expression (RLU) for Given Formulation Mass Ratio 7.5:1: 2% (w/w) DMG-PEG2000, peptoid:mRNA 7.5:1. As to the method: The charge ratio dependence of amino lipidated peptoid delivery vehicles was evaluated by formulating particles between Fluc mRNA and delivery vehicles at varying mass ratios. Formulations were varied between 2:1 and 7.5:1 peptoid:mRNA (w/w) ratios (2:1, 3.5:1, 5:1 and 7.5:1). In addition, the role of DMG-PEG2000 was also explored with the mass ratios, either by excluding DMG-PEG2000 or incorporating DMG-PEG2000 at 2% (w/w) relative to amino lipidated peptoid. Fluc expression from these formulations was measured in HeLa cells following treatment for 24 hours. […] FIGS. 6B and 6C show plots of the average bioluminescence (RLU) for HeLa cells treated with the formulations of exemplary amino lipidated cationic peptoid compounds 1-36, all formulated with 2% w/w DMG-PEG2000.

Data set [4] in a line: mRNA encapsulation by fluorescence of Qubit RNA HS dye before and after lysis with Triton X-100. The settings on record: percentage of mRNA encapsulation; Fluc mRNA/peptoid formulation, 5:1 mass ratio. The data set is classed as physicochemical. How it is done:
The exemplary amino lipidated cationic peptoids described in Example 2 were combined with firefly luciferase (Fluc) mRNA to form nanoparticle compositions to be evaluated for therapeutic and/or prophylactic purposes in vitro or in vivo. The formulations were prepared according to the protocol of Example 3 and mixed by simple pipetting. The mRNA/peptoid formulation at a 5:1 mass ratio of peptoid:cargo were evaluated by dynamic light scattering (DLS) in order to determine the volume average particle size/diameter (nm) of the mRNA/peptoid complex and the size polydispersity index (PDI) within the formulation. The percentage of mRNA encapsulation for each formulation of the exemplary compounds were determined by fluorescence of the Qubit RNA HS (Invitrogen) dye before and after lysis of particles by Triton X-100.

Where [5] appears, read: no PEG, peptoid:Fluc mRNA 5:1 w/w, 100 ng/well, 6 h of treatment.
Where [6] appears, read: no PEG, peptoid:Fluc mRNA 5:1 w/w, 100 ng/well, 24 h of treatment.
The mark [7] stands for this setting: with 2% (w/w) DMG-PEG2000, peptoid:mRNA 5:1, 6 h after treatment.
Where [8] appears, read: with 2% (w/w) DMG-PEG2000, peptoid:mRNA 5:1, 24 h after treatment.

Where only a bound is given, the exact number is not on record here.

Regarding `CCCCCCCCCCN(CC(N)=O)C(=O)CN(CCCCCCCCCC)C(=O)CN(CCCCCCCCCC)C(=O)CN(CCCCCCCCCC)C(=O)CN(CCc1ccccc1)C(=O)CN(CCc1ccccc1)C(=O)CN(CCN)C(=O)CN(CCc1ccccc1)C(=O)CN(CCc1ccccc1)C(=O)CN(CCN)C(=O)CN(CCc1ccccc1)C(=O)CN(CCc1ccccc1)C(=O)CNCCN` [Compound 8], the viability at 8 h, 500 ng/well was found to be 97.3% in data set [1] (Relative Viability (%) 2% PEG) and 92% in data set [1] (Relative Viability (%) No PEG).

As to `CCCCCCCCCCN(CC(N)=O)C(=O)CN(CCCCCCCCCC)C(=O)CN(CCc1ccccc1)C(=O)CN(CCc1ccccc1)C(=O)CN(CCN)C(=O)CN(CCc1ccccc1)C(=O)CN(CCc1ccccc1)C(=O)CN(CCN)C(=O)CN(CCc1ccccc1)C(=O)CN(CCc1ccccc1)C(=O)CN(CCN)C(=O)CN(CCc1ccccc1)C(=O)CN(CCc1ccccc1)C(=O)CN(CCN)C(=O)CN(CCc1ccccc1)C(=O)CN(CCc1ccccc1)C(=O)CNCCN` [Compound 12], the viability at 8 h, 500 ng/well is 104% in data set [1] (Relative Viability (%) 2% PEG) and 98.5% in data set [1] (Relative Viability (%) No PEG).

Regarding `CCCCCCCCCCN(CC(N)=O)C(=O)CN(CCCCCCCCCC)C(=O)CN(CCCCCCCCCC)C(=O)CN(CCCCCCCCCC)C(=O)CN(CCCCCCCCCC)C(=O)CN(CCc1ccccc1)C(=O)CN(CCc1ccccc1)C(=O)CN(CCN)C(=O)CN(CCc1ccccc1)C(=O)CN(CCc1ccccc1)C(=O)CN(CCN)C(=O)CN(CCc1ccccc1)C(=O)CN(CCc1ccccc1)C(=O)CNCCN` [Compound 19], the results for the viability at 8 h, 500 ng/well in data set [1] (Relative Viability (%) 2% PEG) and in data set [1] (Relative Viability (%) No PEG) were 94.8% and 87.1%, respectively.

As to `CCCCCCCCCCN(CC(N)=O)C(=O)CN(CCCCCCCCCC)C(=O)CN(CCCCCCCCCC)C(=O)CN(CCCCCCCCCC)C(=O)CN(CCCCCCCCCC)C(=O)CN(CCc1ccccc1)C(=O)CN(CCc1ccccc1)C(=O)CN(CCN)C(=O)CN(CCc1ccccc1)C(=O)CN(CCc1ccccc1)C(=O)CN(CCN)C(=O)CN(CCc1ccccc1)C(=O)CN(CCc1ccccc1)C(=O)CN(CCN)C(=O)CN(CCc1ccccc1)C(=O)CN(CCc1ccccc1)C(=O)CNCCN` [Compound 21], the figures for the viability at 8 h, 500 ng/well in data set [1] (Relative Viability (%) 2% PEG) and in data set [1] (Relative Viability (%) No PEG) were 109% and 91.3%, respectively.

As to `CCCCCCCCCCN(CC(N)=O)C(=O)CN(CCCCCCCCCC)C(=O)CN(CCCCCCCCCC)C(=O)CN(CCCCCCCCCC)C(=O)CN(CCCCCCCCCC)C(=O)CN(CCCCCCCCCC)C(=O)CN(CCCCCCCCCC)C(=O)CN(CCc1ccccc1)C(=O)CN(CCc1ccccc1)C(=O)CN(CCN)C(=O)CN(CCc1ccccc1)C(=O)CN(CCc1ccccc1)C(=O)CN(CCN)C(=O)CN(CCc1ccccc1)C(=O)CN(CCc1ccccc1)C(=O)CNCCN` [Compound 23], the figures for the “Luciferase Expression (RLU) 6 h” value in the data set on HeLa cells [2] (setting [5]) and in the data set on HeLa cells [2] (setting [7]) were 5.60E+01 RLU and 2.53E+01 RLU, respectively. Also, the “Luciferase Expression (RLU) 24 h” value came out at 9.47E+01 RLU in the data set on HeLa cells [2] (setting [6]) and 2.13E+01 RLU in the data set on HeLa cells [2] (setting [8]). The “Observed Luciferase Expression (RLU) for Given Formulation Mass Ratio 2:1” value in the data set with HeLa cells [3] is 5.47E+01 RLU. The “Observed Luciferase Expression (RLU) for Given Formulation Mass Ratio 3.5:1” value in the data set on HeLa cells [3] is on record as 1.42E+02 RLU. Besides, in the data set on HeLa cells [3], the “Observed Luciferase Expression (RLU) for Given Formulation Mass Ratio 5:1” value was 2.07E+02 RLU. Moreover, the “Observed Luciferase Expression (RLU) for Given Formulation Mass Ratio 7.5:1” value with HeLa cells [3] is 1.55E+02 RLU. Besides, the “% Encapsulation” value in data set [4] was found to be 3.9%. Moreover, the viability at 8 h, 500 ng/well in data set [1] (Relative Viability (%) 2% PEG) was found to be 118%; in data set [1] (Relative Viability (%) No PEG) it was 108%.

As to `CCCCCCCCCCN(CC(=O)N(CC(=O)N(CCCCCCCCCC)CC(=O)N(CC(N)=O)CC(CC)CCCC)CC(CC)CCCC)C(=O)CN(CCc1ccccc1)C(=O)CN(CCc1ccccc1)C(=O)CN(CCN)C(=O)CN(CCc1ccccc1)C(=O)CN(CCc1ccccc1)C(=O)CN(CCN)C(=O)CN(CCc1ccccc1)C(=O)CN(CCc1ccccc1)C(=O)CNCCN` (stereo not shown) [Compound 24], the viability at 8 h, 500 ng/well turned out to be 112% in data set [1] (Relative Viability (%) 2% PEG) and 92% in data set [1] (Relative Viability (%) No PEG).

In the case of `CCCCCCCCCCN(CC(N)=O)C(=O)CN(CCCCCCCCCC)C(=O)CN(CCCCCCCCCC)C(=O)CN(CCCCCCCCCC)C(=O)CN(CCc1ccccc1)C(=O)CN(CCc1ccccc1)C(=O)CN(CCNC)C(=O)CN(CCc1ccccc1)C(=O)CN(CCc1ccccc1)C(=O)CN(CCNC)C(=O)CN(CCc1ccccc1)C(=O)CN(CCc1ccccc1)C(=O)CN(CCNC)C(=O)CN(CCc1ccccc1)C(=O)CN(CCc1ccccc1)C(=O)CNCCNC` [Compound 26], the “Luciferase Expression (RLU) 6 h” value in the data set with HeLa cells [2] (setting [5]) came to 5.00E+00 RLU. For the same compound, the “Luciferase Expression (RLU) 24 h” value in the data set on HeLa cells [2] (setting [6]) is given as 1.07E+01 RLU. For the same compound, in the data set on HeLa cells [2] (setting [7]), the “Luciferase Expression (RLU) 6 h” value is 5.85E+02 RLU. For the same compound, in the data set on HeLa cells [2] (setting [8]), the “Luciferase Expression (RLU) 24 h” value is recorded as 6.45E+02 RLU. In the data set with HeLa cells [3], the “Observed Luciferase Expression (RLU) for Given Formulation Mass Ratio 2:1” value stood at 4.91E+02 RLU, the “Observed Luciferase Expression (RLU) for Given Formulation Mass Ratio 3.5:1” value was 3.93E+03 RLU, the “Observed Luciferase Expression (RLU) for Given Formulation Mass Ratio 5:1” value came to 6.06E+03 RLU and the “Observed Luciferase Expression (RLU) for Given Formulation Mass Ratio 7.5:1” value is 3.19E+03 RLU. Further, the “% Encapsulation” value in data set [4] worked out at 35.7%. For the same compound, the viability at 8 h, 500 ng/well in data set [1] (Relative Viability (%) 2% PEG) came to 91.9%. Further, the viability at 8 h, 500 ng/well in data set [1] (Relative Viability (%) No PEG) was found to be 98.8%.

Consider `CCCCCCCCCCN(CC(N)=O)C(=O)CN(CCCCCCCCCC)C(=O)CN(CCCCCCCCCC)C(=O)CN(CCCCCCCCCC)C(=O)CN(CCc1ccccc1)C(=O)CN(CCc1ccccc1)C(=O)CN(CCCN)C(=O)CN(CCc1ccccc1)C(=O)CN(CCc1ccccc1)C(=O)CN(CCCN)C(=O)CN(CCc1ccccc1)C(=O)CN(CCc1ccccc1)C(=O)CN(CCCN)C(=O)CN(CCc1ccccc1)C(=O)CN(CCc1ccccc1)C(=O)CNCCCN` [Compound 29], for which the viability at 8 h, 500 ng/well in data set [1] (Relative Viability (%) 2% PEG) came to 94%; in data set [1] (Relative Viability (%) No PEG) it was 85.9%.

Take `CCCCCCCCCCN(CC(N)=O)C(=O)CN(CCCCCCCCCC)C(=O)CN(CCCCCCCCCC)C(=O)CN(CCCCCCCCCC)C(=O)CN(CCc1ccccc1)C(=O)CN(CCc1ccccc1)C(=O)CN(CC1CCCN1)C(=O)CN(CCc1ccccc1)C(=O)CN(CCc1ccccc1)C(=O)CN(CC1CCCN1)C(=O)CN(CCc1ccccc1)C(=O)CN(CCc1ccccc1)C(=O)CNCC1CCCN1` (stereo not shown) [Compound 34]: the viability at 8 h, 500 ng/well is 106% in data set [1] (Relative Viability (%) 2% PEG), 67.6% in data set [1] (Relative Viability (%) No PEG) and under 80% in data set [1] (viability).

On to `CCCCCCCCCCN(CC(N)=O)C(=O)CN(CCCCCCCCCC)C(=O)CN(CCCCCCCCCC)C(=O)CN(CCCCCCCCCC)C(=O)CN(CCc1ccccc1)C(=O)CN(CCc1ccccc1)C(=O)CN(CC1CCCN1)C(=O)CN(CCc1ccccc1)C(=O)CN(CCc1ccccc1)C(=O)CN(CC1CCCN1)C(=O)CN(CCc1ccccc1)C(=O)CN(CCc1ccccc1)C(=O)CN(CC1CCCN1)C(=O)CN(CCc1ccccc1)C(=O)CN(CCc1ccccc1)C(=O)CNCC1CCCN1` (stereo not shown) [Compound 35], for which the viability at 8 h, 500 ng/well in data set [1] (Relative Viability (%) 2% PEG) is 105%; in data set [1] (Relative Viability (%) No PEG) it was 74.8%; in data set [1] (viability), under 80%.
